Reference: patent US11498920B2, “4-(1H-imidazol-5-yl)-1H-pyrrolo[2, 3-b] pyridines for use in the treatment of leukaemias, lymphomas and solid tumors” (MASARYKOVA UNIVERZITA, priority 2018, dated 2022)

Columns and labels:
OVCAR4 = assay: Cytotoxicity on panel of cell lines, TMRE viability (Example II.2); format: cell-based; details: Homo sapiens, OVCAR-4, 24 hours, mean, control = 1, read-out: cell viability relative to control, OVCAR4 (ovarian cancer)
Experimental: (§1) The leukemia and lymphoma-derived cell lines [MEC-1 cell line (derived from chronic lymphocytic leukemia—CLL), Nalm-16 (acute lymphocytic leukemia—ALL), K562 (chronic myeloid leukemia—CML), HL-60 (acute myeloid leukemia—AML), Maver-1 and Mino (mantle cell lymphoma—MCL), BL-41 (Burkitt lymphoma—BL), WSU-NHL (follicular lymphoma—FL), SUDHL (diffuse large B-cell lymphoma—DLBCL)], primary CLL cells and nonmalignant control primary cells were cultured in suspension in flasks under the following conditions: RPMI 1640 medium (Hyclone) supplemented with 10% fetal bovine serum (FBS, Gibco) and 1% penicillin/streptomycin (Life Technologies), 37° C., 5% CO2 and 95% relative humidity, with optimal culture cell density 5×10^6 cells/mL in case of primary cells and 0.5-1×10^6 cells/mL in case of cell lines. The adherent cell lines [A375 (derived from malignant melanoma), MDA-MB-231 and MCF-7 (breast cancer), MIA-PA-CA and PANC1 (pancreatic cancer), PC3 (prostate cancer), OVCAR4 (ovarian cancer) and HEPG2 (hepatocellular carcinoma)] were cultured on plates under the same conditions using RPMI1640 or DMEM medium (Gibco) according to instructions provided by the distributor (DSMZ/ATCC).
(§2) The tested cell lines were incubated with inhibitors at 30 μM concentration or corresponding amount of solvent (DMSO, Sigma Aldrich) in standard culture conditions, seeded as 10^5 cells/500 μl per well in a 24-well plate. Experiments were performed in technical duplicates and 2-3 biological repetitions per cell line. Viability of cells was assessed after 24 hours.
(§3) Relative values are presented as a mean value, showing ratio to the effect of control. Relative value <1=lower viability than control condition.

HEPG2 = assay: as above; format: cell-based; details: Homo sapiens, 24 hours, mean, control = 1, read-out: cell viability relative to control, HEPG2 (hepatocellular carcinoma)
Experimental: as §1, §2, §3

Maver1 = assay: as above; format: cell-based; details: Homo sapiens, 24 hours, mean, control = 1, read-out: cell viability relative to control, Maver1 (MCL)
Experimental: as §1, §2, §3

[1] = Pharmacokinetic study, oral dosing, plasma concentration by LC-MS/MS (Example II.5); format: in vivo; details: mouse, male Balb/c mice, oral 20 mg/kg as dihydrochloride in saline, free base quantified, below LLOQ designated zero; for concentration at 15 min: read-out: conc. at 15 min; for concentration at 30 min: read-out: conc. at 30 min; for concentration at 60 min: read-out: conc. at 60 min; for concentration at 120 min: read-out: conc. at 120 min; for concentration at 240 min: read-out: conc. at 240 min; for concentration at 600 min: read-out: conc. at 600 min
Experimental: Male Balb/c mice (10-12 weeks old, body weight 24.1 to 30.8 g and average body weight across all groups 26.8 g, SD=1.7 g) were used in this study. The animals were randomly assigned to the treatment groups before the pharmacokinetic study; all animals were fasted for 4 h before dosing. The time points indicated in Table 4 were set for this pharmacokinetic study. Each of the time point treatment group included 4 animals. There was also control group of 2 animals. The compounds were dosed orally as the corresponding dihydrochlorides dissolved in physiological saline (c=3-4 mg/mL) at the dose of 20 mg/kg.
Mice were injected IP with 2,2,2-tribromoethanol at the dose of 150 mg/kg prior to drawing the blood. Blood collection was performed from the orbital sinus in microtainers containing K2EDTA. Animals were sacrificed by cervical dislocation after the blood samples collection. All samples were immediately processed, flash-frozen and stored at −70° C. until subsequent analysis.
Plasma samples (50 μL) were mixed with 200 μL of internal standard solution. After mixing by pipetting and centrifuging for 4 min at 6,000 rpm, 0.5 μL of each supernatant was injected into LC-MS/MS system.
The analyzed compound (as a dihydrochloride salt) was dissolved in DMSO, and the resulting solution with concentration of 2 mg/mL was used for calibration standards preparation (stock solution). A series of calibration standards was prepared by consecutively dilution of stock compound solution with blank mouse plasma to a final concentration of 40 000, 20 000, 10 000, 5 000, 2 500, 1000, 500, 250, 100, 50, and 20 ng/mL. Standard plasma samples (50 μL) were mixed with 200 μL of internal standard. After mixing by pipetting and centrifuging for 4 min at 6,000 rpm, 0.5 μL of each supernatant was injected into LC-MS/MS system. Signal corresponding to the free base was analyzed and quantified (Table 4).
The regression analysis of the analyzed compound was performed by plotting the peak area ratio (y-axis) against the compound concentration in calibration standards (x-axis, ng/mL).
The concentrations of the analyzed compound in plasma samples below the lower limit of quantitation (LLOQ—5 ng/mL to 20 ng/mL) were designated as zero.

primary CLL cells = assay: Cytotoxicity, TMRE flow cytometry viability, primary CLL cells (Example II.1); format: cell-based; details: Homo sapiens, CLL cell, 6 hours, TMRE positive cells normalized to control, ratio to PF670462, <1 = higher cytotoxicity than PF670462, read-out: Viability of cells, Compound of formula I (100 μM), relative to PF670462 (100 μM), CLL primary cells
[2] = test system: Maver-1 cells (mantle cell lymphoma); assay: Cytotoxicity, TMRE flow cytometry viability, Maver-1 cells (Example II.1); format: cell-based; details: Homo sapiens, Maver1, 24 hours, TMRE positive cells normalized to control, ratio to PF670462, <1 = higher cytotoxicity than PF670462, read-out: Viability of cells, Compound of formula I (100 μM), relative to PF670462 (100 μM), Maver-1 cells (mantle cell lymphoma)

Row | Structure (SMILES) | concentration at 15 min [1] [nM] | concentration at 30 min [1] [nM] | concentration at 60 min [1] [nM] | concentration at 120 min [1] [nM] | concentration at 240 min [1] [nM] | concentration at 600 min [1] [nM] | viability at 30 µM (OVCAR4) [%] | viability at 30 µM (HEPG2) [%] | viability at 30 µM (Maver1) [%] | viability at 100 µM (primary CLL cells) [%] | viability at 100 µM [2] [%]
1 | Fc1ccc(-c2ncn(CC3CCCO3)c2-c2ccnc3[nH]ccc23)cc1 (stereo not drawn) [Preparative Example 27, 4-(4-(4-fluorophenyl)-1-((tetrahydrofuran-2-yl)methyl)-1H-imidazol-5-yl)-1H-pyrrolo[2,3-b]pyridine] | – | – | – | – | – | – | 84 | 85 | 78 | – | –
2 | Fc1ccc(-c2ncn(Cc3cccnc3)c2-c2ccnc3[nH]ccc23)cc1 [Preparative Example 82, 4-(4-(4-fluorophenyl)-1-(pyridin-3-ylmethyl)-1H-imidazol-5-yl)-1H-pyrrolo[2,3-b]pyridine] | 1370 | 260 | 90 | 40 | 20 | 0 | – | – | – | 80 | –
3 | Cn1cnc(Cn2cnc(-c3ccc(F)cc3)c2-c2ccnc3[nH]ccc23)c1 [Preparative Example 92, 4-(4-(4-fluorophenyl)-1-((1-methyl-1H-imidazol-4-yl)methyl)-1H-imidazol-5-yl)-1H-pyrrolo[2,3-b]pyridine] | 9520 | 6630 | 4520 | 790 | 50 | 0 | – | – | – | – | 81
4 | Cn1ccc(Cn2cnc(-c3ccc(F)cc3)c2-c2ccnc3[nH]ccc23)n1 [Preparative Example 94] | 440 | 210 | 180 | 70 | 0 | 0 | – | – | – | – | 81
5 | CN1CCC(Cn2cnc(-c3ccc(F)cc3)c2-c2ccnc3[nH]ccc23)CC1 [Preparative Example 102, 4-(4-(4-fluorophenyl)-1-((1-methylpiperidin-4-yl)methyl)-1H-imidazol-5-yl)-1H-pyrrolo[2,3-b]pyridine] | 620 | 720 | 400 | 530 | 480 | 0 | – | – | – | 68 | 69
6 | Fc1ccc(-c2ncn(Cc3cocn3)c2-c2ccnc3[nH]ccc23)cc1 [Preparative Example 103, 4-((4-(4-fluorophenyl)-5-(1H-pyrrolo[2,3-b]pyridin-4-yl)-1H-imidazol-1-yl)methyl)oxazole] | 2170 | 580 | 130 | 80 | 40 | 0 | – | – | – | – | –
7 | Cc1nnc(Cn2cnc(-c3ccc(F)cc3)c2-c2ccnc3[nH]ccc23)[nH]1 [Preparative Example 107, 4-(4-(4-fluorophenyl)-1-((5-methyl-4H-1,2,4-triazol-3-yl)methyl)-1H-imidazol-5-yl)-1H-pyrrolo[2,3-b]pyridine] | 4780 | 2420 | 2300 | 430 | 240 | 0 | – | – | – | – | –
8 | Cn1cc(Cn2cnc(-c3ccc(F)cc3)c2-c2ccnc3[nH]ccc23)nn1 [Preparative Example 113, 4-(4-(4-fluorophenyl)-1-((1-methyl-1H-1,2,3-triazol-4-yl)methyl)-1H-imidazol-5-yl)-1H-pyrrolo[2,3-b]pyridine] | 8010 | 3530 | 1030 | 1120 | 250 | 0 | – | – | – | – | –
9 | Cn1ccnc1Cn1cnc(-c2ccc(F)cc2)c1-c1ccnc2[nH]ccc12 [Preparative Example 122, 4-(4-(4-fluorophenyl)-1-((1-methyl-1H-imidazol-2-yl)methyl)-1H-imidazol-5-yl)-1H-pyrrolo[2,3-b]pyridine] | 2730 | 730 | 300 | 160 | 40 | 0 | – | – | – | – | –

Continued, in another order:

Row | concentration at 15 min [1] [nM] | concentration at 30 min [1] [nM] | concentration at 60 min [1] [nM] | concentration at 120 min [1] [nM] | concentration at 240 min [1] [nM] | concentration at 600 min [1] [nM] | Structure (SMILES) | viability at 30 µM (OVCAR4) [%] | viability at 30 µM (HEPG2) [%] | viability at 30 µM (Maver1) [%] | viability at 100 µM (primary CLL cells) [%] | viability at 100 µM [2] [%]
10 | 1350 | 920 | 520 | 130 | 0 | 0 | CN(C)[C@H]1C[C@@H](n2cnc(-c3ccc(F)cc3)c2-c2ccnc3[nH]ccc23)C1 [Preparative Example 123, (1R,3s)-3-(4-(4-fluorophenyl)-5-(1H-pyrrolo[2,3-b]pyridin-4-yl)-1H-imidazol-1-yl)-N,N-dimethylcyclobutan-1-amine] | – | – | – | 58 | 78
11 | 2380 | 1830 | 840 | 760 | 380 | 0 | CN1CCC(F)(Cn2cnc(-c3ccc(F)cc3)c2-c2ccnc3[nH]ccc23)CC1 [Preparative Example 126, 4-(1-((4-fluoro-1-methylpiperidin-4-yl)methyl)-4-(4-fluorophenyl)-1H-imidazol-5-yl)-1H-pyrrolo[2,3-b]pyridine] | – | – | – | 64 | 71
12 | 18900 | 7240 | 3980 | 770 | 410 | 0 | Cn1nnc(Cn2cnc(-c3ccc(F)cc3)c2-c2ccnc3[nH]ccc23)n1 [Preparative Example 151] | – | – | – | – | –
13 | 13900 | 8760 | 7860 | 2450 | 520 | 0 | Fc1ccc(-c2ncn(Cc3nc[nH]n3)c2-c2ccnc3[nH]ccc23)cc1 [Preparative Example 154, 4-(1-((1H-1,2,4-triazol-3-yl)methyl)-4-(4-fluorophenyl)-1H-imidazol-5-yl)-1H-pyrrolo[2,3-b]pyridine] | – | – | – | – | –
